These results are taken from patent US20240165281A1, “DUAL MODE RADIOTRACER AND THERAPEUTICS” (Technische Universität München, priority 2021, published 2024).

For data set [1] the following is noted: Wängler et al. 2010; cited from earlier work.
Data set [2] addresses T1, Human Serum Albumin (HSA) (Homo sapiens, UniProt P02768).
T1 construct: purchased Daicel H13H-2433
Description: Human serum albumin (HSA) binding by high performance affinity chromatography (HPAC). It is filed as in vitro ADME. The note with it: Chiralpak HSA column. On the procedure: Determination of Human Serum Albumin (HSA) Binding by High Performance Affinity Chromatography (HPAC)
HSA binding of the PSMA-addressing ligands was determined according to a previously published procedure via HPLC (Valko, K.; Nunhuck, S.; Bevan, C.; Abraham, M. H.; Reynolds, D. P. Journal of pharmaceutical sciences 2003, 92, 2236-2248). A Chiralpak HSA column (50×3 mm, 5 μm, H13H-2433, Daicel, Tokyo, Japan) was used at a constant flow rate of 0.5 mL/min at rt. Mobile phase A was a freshly prepared 50 mM aqueous solution of NH4OAc (pH 6.9) and mobile phase B was isopropanol (HPLC grade, VWR). The applied gradient for all experiments was 100% A (0 to 3 min), followed by 80% A (3 to 40 min). Prior to the experiment, the column was calibrated using nine reference substances with a HSA binding, known from literature, in the range of 13 to 99% (Valko, K.; Nunhuck, S.; Bevan, C.; Abraham, M. H.; Reynolds, D. P. Journal of pharmaceutical sciences 2003, 92, 2236-2248; Yamazaki, K.; Kanaoka, M. Journal of Pharmaceutical sciences 2004, 93, 1480-1494). All substances, including the examined PSMA ligands, were dissolved in a 1:1 mixture (v/v) of isopropanol and a 50 mM aqueous solution of NH4OAc (pH6.9) with a final concentration of 0.5 mg/mL. Non-linear regression was established with the OriginPro 2016G software (Northampton, United States) (FIG. 8).

Another data set addresses T2, PSMA (Homo sapiens, UniProt Q04609).
T2 construct: PSMA-positive LNCAP cells (300265; Cell Lines Service, Eppelheim, Germany); host or cells: LNCaP cells
Description: PSMA affinity (IC50), competition with [125I]I-BA-KuE on LNCaP cells. In kind it is binding. The settings on record: natLu complex, on ice 60 min, read-out: IC50. On the procedure: A mixture of trypsin and EDTA (0.05%, 0.02%) in PBS (Biochrom) was used in order to harvest cells. Cells were counted with a Neubauer hemocytometer (Paul Marienfeld, Lauda-Königshofen, Germany).
Affinity Determinations (IC50)
In the case of metal-complexed ligands, the crude reaction mixture was diluted analogously, without further purification. Cells were harvested 24±2 hours prior to the experiment and seeded in 24-well plates (1.5×10^5 cells in 1 mL/well). […] The media of both steps were combined in one fraction and represent the amount of free radioligand. Afterwards, the cells were lysed with 250 μL of 1 M aqueous NaOH for at least 10 min. After a washing step (250 μL of 1 M NaOH), both fractions, representing the amount of bound ligand, were united. Quantification of all collected fractions was accomplished in a γ-counter. PSMA-affinity determinations were carried out at least three times per ligand.

The subject of the next data set is LNCaP cells. In words: Internalization studies in LNCaP cells. The note with it: 37° C., 60 min. It is filed as cell-based. On the procedure: PSMA-positive LNCAP cells (300265; Cell Lines Service, Eppelheim, Germany) were cultivated in Dulbecco modified Eagle medium/Nutrition Mixture F-12 with Glutamax (1:1) (DMEM-F12, Biochrom, Berlin, Germany) supplemented with fetal bovine serum (10%, FBS Zellkultur, Berlin, Germany) and kept at 37° C. in a humidified CO2 atmosphere (5%). A mixture of trypsin and EDTA (0.05%, 0.02%) in PBS (Biochrom) was used in order to harvest cells. Cells were counted with a Neubauer hemocytometer (Paul Marienfeld, Lauda-Königshofen, Germany).
For internalization studies, LNCaP cells were harvested 24±2 hours before the experiment and seeded in poly-L-lysine coated 24-well plates (1.25×10^5 cells in 1 mL/well, Greiner Bio-One, Kremsmünster, Austria). After removal of the culture medium, the cells were washed once with 500 μL DMEM-F12 (5% BSA) and left to equilibrate for at least 15 min at 37° C. in […] DMEM-F12 (5% BSA). Each well was treated with either 25 μL of either DMEM-F12 (5% BSA, control) or 25 μL of a 100 μM PMPA (2-(Phosphonomethyl)-pentandioic acid, Tocris Bioscience, Bristol, UK) solution in PBS, for blockade. Next, 25 μL of the radioactive-labelled PSMA inhibitor (10.0 nM in DMEM-F12 (5% BSA)) was added and the cells were incubated at 37° C. for 60 min. The experiment was terminated by placing the 24-well plate on ice for 3 min and consecutive removal of the medium. Each well was carefully washed with 250 μL of ice-cold HBSS. Both fractions from the first steps, representing the amount of free radioligand, were combined. Removal of surface bound activity was accomplished by incubation of the cells with 250 μL of ice-cold PMPA (10 μM in PBS) solution for 5 min and rinsed again with another 250 μL of ice-cold PBS. The internalized activity was determined by incubation of the cells in 250 μL […] aqueous NaOH for at least 10 min. The obtained fractions were combined with those of the subsequent wash step with 250 μL 1 M aqueous NaOH. Each experiment (control and blockade) was performed in triplicate. Free, surface bound and internalized activity was quantified in a y-counter. All internalization studies were accompanied by external reference studies, using ([^125I]I-BA)KuE (c=0.2 nM), which were performed analogously. Data were corrected for non-specific binding and normalized to the specific-internalization observed for the radioiodinated reference compound.

Data set [3] can be described thus: Apparent molecular weight (MWapp).
A short description of data set [4]: Octanol-water partition coefficient (log D7.4). It is filed as physicochemical. The settings on record: PBS pH 7.4 / n-octanol, 177Lu-labelled. On the procedure: Octanol-Water Partition Coefficient (log D7.4)
Approximately 1 MBq of the labelled tracer was dissolved in 1 mL of a 1:1 mixture (v/v) of PBS (pH 7.4) and n-octanol in a reaction vial (1.5 mL). After vigorous mixing of the suspension for 3 minutes at room temperature, the vial was centrifuged at 15000 g for 3 minutes (Biofuge 15, Heraus Sepatech, Osterode, Germany) and 100 μL aliquots of both layers were measured in a gamma counter. The experiment was repeated at least six times.

Data set [5] deals with LNCaP tumor-bearing male CB-17 SCID mice. In words: Biodistribution studies 24 h p.i.
Description: Approximately 3-7 MBq (0.1-0.2 nmol) of the radioactive-labelled PSMA inhibitors were injected into the tail vein of LNCaP tumor-bearing male CB-17 SCID mice and sacrificed after 24 h post injection. Selected organs were removed, weighted and measured in a γ-counter. Results are all decay corrected and given in % injected dose per gram of tissue (% iD/g). Tumor-to-organ ratios are calculated from animals' individual ratios and are given as mean±standard deviation.

T2 sequence (Q04609 whole entry): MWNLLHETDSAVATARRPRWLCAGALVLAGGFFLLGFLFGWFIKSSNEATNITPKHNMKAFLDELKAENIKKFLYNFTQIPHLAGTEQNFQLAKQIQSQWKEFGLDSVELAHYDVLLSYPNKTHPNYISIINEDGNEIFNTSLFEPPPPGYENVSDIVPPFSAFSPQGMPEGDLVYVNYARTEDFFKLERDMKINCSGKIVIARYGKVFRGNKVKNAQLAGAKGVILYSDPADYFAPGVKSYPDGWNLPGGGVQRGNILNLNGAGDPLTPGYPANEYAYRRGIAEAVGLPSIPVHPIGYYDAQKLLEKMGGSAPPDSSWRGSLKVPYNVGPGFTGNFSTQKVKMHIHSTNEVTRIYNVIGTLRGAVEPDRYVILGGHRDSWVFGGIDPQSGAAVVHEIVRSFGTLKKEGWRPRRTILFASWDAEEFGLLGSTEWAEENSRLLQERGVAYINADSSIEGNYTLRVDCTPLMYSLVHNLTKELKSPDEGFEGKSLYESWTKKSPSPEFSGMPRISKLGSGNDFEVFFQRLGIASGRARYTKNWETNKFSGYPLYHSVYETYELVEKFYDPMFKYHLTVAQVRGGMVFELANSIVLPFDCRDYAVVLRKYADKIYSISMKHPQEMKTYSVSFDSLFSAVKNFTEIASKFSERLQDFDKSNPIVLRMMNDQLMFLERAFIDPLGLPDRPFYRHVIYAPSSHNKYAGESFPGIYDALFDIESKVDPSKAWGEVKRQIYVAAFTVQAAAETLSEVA
T1 sequence (P02768 25-609): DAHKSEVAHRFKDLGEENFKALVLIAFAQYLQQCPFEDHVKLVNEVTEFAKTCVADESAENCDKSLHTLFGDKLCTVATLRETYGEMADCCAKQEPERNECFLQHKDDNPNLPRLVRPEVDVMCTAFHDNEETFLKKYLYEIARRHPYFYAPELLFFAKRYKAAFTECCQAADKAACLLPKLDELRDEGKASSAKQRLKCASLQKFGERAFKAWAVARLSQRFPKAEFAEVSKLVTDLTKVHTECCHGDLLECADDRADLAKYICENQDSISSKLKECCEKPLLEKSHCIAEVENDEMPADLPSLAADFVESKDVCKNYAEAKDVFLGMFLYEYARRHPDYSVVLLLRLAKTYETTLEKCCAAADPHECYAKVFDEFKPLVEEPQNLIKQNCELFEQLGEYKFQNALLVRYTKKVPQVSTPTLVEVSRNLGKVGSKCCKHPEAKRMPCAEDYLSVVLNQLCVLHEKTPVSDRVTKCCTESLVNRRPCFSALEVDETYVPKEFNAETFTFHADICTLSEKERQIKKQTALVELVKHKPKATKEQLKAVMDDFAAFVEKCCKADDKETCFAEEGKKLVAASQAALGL

As for SIFA-Asn(AcNH-β-Glc)-Tyr^3 -octreotate, the “log P(ow)” value in data set [1] was 1.23.
Regarding `O=C(O)CC[C@H](NC(=O)N[C@@H](CCCCNC(=O)[C@H](Cc1ccc2ccccc2c1)NC(=O)[C@H]1CC[C@H](CNC(=O)CN2CCN(CC(=O)O)CCN(CC(=O)O)CCN(CC(=O)O)CC2)CC1)C(=O)O)C(=O)O` [PSMA-617, reference compound], the “HSA (HPAC)” value in data set [2] is recorded as 84.9%. Besides, the IC50 at PSMA was 3.3 ± 0.2 nM. For the same compound, the Internalization in the data set on LNCaP cells (normalized to ([125I]I-BA)KuE) amounted to 203 ± 10 % IBA-KuE. The MWapp in data set [3] is listed as 13.7 kDa. Further, the logD7.4 in data set [4] was −4.10. In data set [5] (Table 1), the “Kidneys (24 h)” value turned out to be 9.8 ± 2.7 % iD/g and the “Tumor (24 h)” value is 11.6 ± 2.2 % iD/g. Also, in data set [5] (tumor/kidney, Table 1), the T/K-ratio was found to be 1.24 ± 0.29.
In the case of “SIFA-Asn(AcNH-β-Glc)-PEG-Tyr^3 -octreotate”, in data set [1], the “log P(ow)” value is 0.96.
With `CC(C)(C)[Si](F)(c1ccc(C(=O)NC[C@@H](NC(=O)[C@@H](CCCNC(N)=O)NC(=O)CC[C@H](C(=O)O)N2CCN(CC(=O)O)CCN(CC(=O)O)CCN(CC(=O)O)CC2)C(=O)NCCCCCC(=O)NCCC[C@@H](NC(=O)CC[C@H](NC(=O)N[C@@H](CCC(=O)O)C(=O)O)C(=O)O)C(=O)O)cc1)C(C)(C)C` [Compound 2C015], the “HSA (HPAC)” value in data set [2] was 95.0%. At PSMA, the concentration for half-maximal inhibition (IC50) came out at 3.99 ± 0.74 nM. In addition, the Internalization with LNCaP cells (normalized to reference) came out at 226 ± 10 % IBA. Also, the MWapp in data set [3] is listed as 18.9 kDa. This compound came in with a logD7.4 in data set [4] of −3.40 ± 0.10. Besides, in data set [5] (Table 6), the “In vivo biodistribution (24 h p.i.) blood” value is 0.0007 ± 0.0005 % iA/g, the “In vivo biodistribution (24 h p.i.) kidney” value was 2.23 ± 1.29 % iA/g and the “In vivo biodistribution (24 h p.i.) tumor” value came out at 8.98 ± 2.32 % iA/g. For the same compound, in data set [5] (mean), the uptake in adrenals came out at 0.1013 % iD/g, the uptake in blood was found to be 0.0007 % iD/g, the uptake in bone was 0.0223 % iD/g and the uptake in heart turned out to be 0.0237 % iD/g. Besides, in data set [5] (mean), the uptake in intestine amounted to 0.1103 % iD/g, the uptake in kidney worked out at 2.2339 % iD/g, the uptake in liver was 0.164 % iD/g and the uptake in lung amounted to 0.0468 % iD/g. In data set [5] (mean), the uptake in muscle is 0.0062 % iD/g, the uptake in pancreas is on record as 0.0212 % iD/g, the “uptake in parotid gl.” value is recorded as 0.0674 % iD/g and the uptake in spleen is recorded as 0.2671 % iD/g. Besides, in data set [5] (mean), the uptake in stomach was 0.036 % iD/g, the “uptake in submand. gl.” value was determined as 0.0389 % iD/g and the uptake in tumor came to 8.9821 % iD/g.
